Test results: patent publication US6403343B2, “Method of producing a taxane-type diterpene and a method of obtaining cultured cells which produce the taxane-type dilterpene at a high rate” (Mitsui Chemicals, Inc., priority 1993, dated 2002)

Experiments:
Format in all cases: cell-based
[1] = test system: cultured cells of Taxus baccata LINN; assay: Taxane-type diterpenes in the culture medium after adding 100 μM methyl jasmonate (FIG. 1, FIG. 2); details: 7th day after the addition
Protocol: The analytical results of taxane-type diterpenes existed in the culture medium of Example 15 prior to the addition of 100 μM of methyl jasmonate, on the third day after the addition, and on the 7th day after the addition, are shown in FIG. 1 and FIG. 2 On the 7th day of the culture, about half of the taxol and about 70% of the baccatin III were leaked in the medium.
The procedure of Example 20 was carried out except that the methyl ester of jasmonic acid was not added.

[2] = test system: cultured cells of Taxus baccata LINN, layer of 1.07 g/ml or less; assay: Same culture using cells of the specific gravity layer of 1.07 g/ml or less (Ficoll), jasmonic acids added; details: 250 μM added on 14th day, 7 more days; cells of layer of 1.07 g/ml or less
Protocol: (§1) The cells with accelerated growth rate obtained by the method of Example 1 were fractionated firstly by a stainless steel mesh and cell clusters having the size of 250-840 μm were obtained. A medium having a specific gravity of 1.07 (g/ml) was produced by the use of Ficoll and the above-mentioned cells were layered over it and centrifuged at 700 rpm for 6 minutes. The cells were fractionated into two layers according to the difference of the specific gravity. The cells contained in the layer of 1.07 g/ml or less were fractionated and washed with 2% sucrose solution three times or more, to wash off Ficoll. After the washing, 1 g (fresh weight) of the cells was transferred to an Erlenmeyer flask containing 20 ml of liquid Woody Plant Medium and shake culture was carried out at 25° C. for 14 days. […] After completing the culture, the procedure of Example 1 was carried out.
as §1, with “growth rates” for “growth rate”, “Example 8” for “Example 1”, “was inoculated” for “was transferred”
as §1, with “Example 15” for “Example 1”, “was inoculated” for “was transferred”

[3] = test system: cultured cells of Taxus baccata LINN; assay: Taxane-type diterpene yield and cell yield, shake culture of Taxus baccata cells with a jasmonic acid (or jasmone) added
[4] = 0.01 μM added on 14th day, 7 more days
[5] = 0.1 μM added on 14th day, 7 more days
[6] = 1 μM added on 14th day, 7 more days
[7] = 10 μM added on 14th day, 7 more days
[8] = 25 μM added 4 times every two days from 7th day, total 100 μM
[9] = 50 μM added on 14th day, 7 more days
[10] = 100 μM added on 7th day, 14 more days
[11] = 100 μM added on 14th day, 7 more days
[12] = 100 μM added on first day, 20 more days
[13] = 250 μM added on 14th day, 7 more days
[14] = 500 μM added on 14th day, 7 more days
[15] = 1000 μM added on 14th day, 7 more days

## CC/C=C\CC1C(=O)CCC1CC(=O)OC (stereo not drawn) [methyl jasmonate]
[1]
  baccatin III leaked in the medium: about 70%
  taxol leaked in the medium: about half
[2]
  cell yield: 10.2 g/L
  yield of baccatin III: 18.7 mg/L
  yield of cephalomannine: 3.2 mg/L
  yield of taxol: 43.1 mg/L
[3]; [4]
  cell yield: 12.2 g/L
  yield of baccatin III: 0.3 mg/L
  yield of cephalomannine: 1.6 mg/L
  yield of taxol: 3.2 mg/L
[3]; [5]
  cell yield: 12.1 g/L
  yield of baccatin III: 0.3 mg/L
  yield of cephalomannine: 1.6 mg/L
  yield of taxol: 4.2 mg/L
[3]; [6]
  cell yield: 11.3 g/L
  yield of baccatin III: 0.4 mg/L
  yield of cephalomannine: 1.8 mg/L
  yield of taxol: 4.9 mg/L
[3]; [7]
  cell yield: 11.3 g/L
  yield of baccatin III: 0.7 mg/L
  yield of cephalomannine: 2.1 mg/L
  yield of taxol: 10.8 mg/L
[3]; [8]
  cell yield: 10.7 g/L
  yield of baccatin III: 14.9 mg/L
  yield of cephalomannine: 2.2 mg/L
  yield of taxol: 16.7 mg/L
[3]; [9]
  cell yield: 10.9 g/L
  yield of baccatin III: 3.1 mg/L
  yield of cephalomannine: 2.2 mg/L
  yield of taxol: 10.9 mg/L
[3]; [10]
  cell yield: 9.7 g/L
  yield of baccatin III: 10.6 mg/L
  yield of cephalomannine: 2.1 mg/L
  yield of taxol: 14.2 mg/L
[3]; [11]
  cell yield: 9.8 g/L
  yield of baccatin III: 9.2 mg/L
  yield of cephalomannine: 2.0 mg/L
  yield of taxol: 13.5 mg/L
[3]; [12]
  cell yield: 7.2 g/L
  yield of baccatin III: 1.2 mg/L
  yield of cephalomannine: 1.7 mg/L
  yield of taxol: 4.5 mg/L
[3]; [13]
  cell yield: 10.0 g/L
  yield of baccatin III: 12.9 mg/L
  yield of cephalomannine: 2.0 mg/L
  yield of taxol: 15.1 mg/L
[3]; [14]
  cell yield: 10.6 g/L
  yield of baccatin III: 13.0 mg/L
  yield of cephalomannine: 1.9 mg/L
  yield of taxol: 12.6 mg/L
[3]; [15]
  cell yield: 5.9 g/L
  yield of baccatin III: 1.2 mg/L
  yield of cephalomannine: 1.8 mg/L
  yield of taxol: 3.1 mg/L
